Experimental data as given in patent publication US20110190503A1, “Thiazolopyridin-2-yloxy-phenyl and thiazolopyrazin-2-yloxy-phenyl amines as modulators of leukotriene A4 hydrolase” (Janssen Pharmaceutical NV, priority 2008, published 2011).

How the values were obtained:
[1] = molecular target: T1, recombinant human LTA4 hydrolase (rhLTA4H) (Homo sapiens, UniProt P09960); test: Recombinant human LTA4 hydrolase assay for LTA4 hydrolase inhibitor activity; format: biochemical; details: rhLTA4H, LTA4 substrate, LTB4 by immunoassay; single determination or average; read-out: IC50
T1 construct: made in house; host or cells: Spodoptera frugiperda (Sf-9) cells, recombinant baculovirus (pFastBac1)
T1 sequence (P09960 1-611): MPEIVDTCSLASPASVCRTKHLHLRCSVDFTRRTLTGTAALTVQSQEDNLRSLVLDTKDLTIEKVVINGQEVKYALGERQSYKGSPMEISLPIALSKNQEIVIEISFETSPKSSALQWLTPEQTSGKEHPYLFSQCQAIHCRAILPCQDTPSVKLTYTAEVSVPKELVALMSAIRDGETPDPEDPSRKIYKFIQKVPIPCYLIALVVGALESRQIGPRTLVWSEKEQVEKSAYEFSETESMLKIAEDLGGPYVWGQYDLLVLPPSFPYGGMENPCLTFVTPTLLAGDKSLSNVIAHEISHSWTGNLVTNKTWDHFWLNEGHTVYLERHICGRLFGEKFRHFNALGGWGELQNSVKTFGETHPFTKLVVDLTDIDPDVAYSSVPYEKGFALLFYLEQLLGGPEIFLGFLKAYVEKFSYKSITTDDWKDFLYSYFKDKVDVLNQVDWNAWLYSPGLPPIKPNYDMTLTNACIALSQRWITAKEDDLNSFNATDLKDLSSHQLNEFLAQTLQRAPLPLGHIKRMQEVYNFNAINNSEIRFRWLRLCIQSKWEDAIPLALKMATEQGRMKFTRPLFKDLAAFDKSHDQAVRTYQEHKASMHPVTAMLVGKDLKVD
Procedure, shortened: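 Recombinant human LTA4H from baculovirus-infected Sf-9 cells (10 ng) pre-incubated 10 min at rt with compound (10% DMSO in dilutions), then reacted with free-acid LTA4 for 30 min at rt. LTB4 measured by ELISA; IC50 by nonlinear regression. Values are single determinations or averages.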

[2] = tested on: LTB4 production by calcium ionophore-stimulated murine blood; test: LTB4 production by calcium ionophore-stimulated murine blood for LTA4H inhibitor activity; format: cell-based, CD-1 mice; details: Mus musculus; murine blood diluted 1 in 15, calcium ionophore A23187, LTB4 by immunoassay; read-out: IC50
Procedure, shortened: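 Heparinized CD-1 mouse blood pre-incubated with compound 15 min at 37° C, then stimulated with calcium ionophore A23187 (7 μg/mL final) for 30 min. LTB4 in supernatant measured by enzyme immunoassay; values are single or averaged determinations, with SD for n≥3.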

[3] = tested on: neutrophil influx; test: Murine arachidonic acid-induced inflammation model: neutrophil influx in ear, myeloperoxidase activity (% Inh. MPO); format: in vivo; details: Mus musculus, female Balb/c mice, 30 mg/kg oral gavage, ear biopsy 3 h after topical arachidonic acid, number of determinations in parentheses
Experimental: (§1) Assay 4: Murine Arachidonic Acid-Induced Inflammation Model
(§2) LTA4H inhibitor compounds of the present invention were dissolved in 20% cyclodextran/H2O at a concentration of 3 mg/mL. The solutions were administered by oral gavage to female Balb/c mice weighing approximately 20 grams each (0.2 mL per mouse, 30 mg of LTA4H inhibitor compound per kg). Sixty minutes after being administered an LTA4 inhibitor, each mouse received topical application of 20 μL of arachidonic acid (100 mg/mL in acetone) to the left ear and 20 μL of acetone only to the right ear. After 3 h, the mice were sacrificed, blood was withdrawn in heparinized syringes, and 8 mm ear biopsies were taken. Ear biopsies were weighed to determine edema and then frozen at −80° C. until needed for determination of neutrophil influx.
Neutrophil influx was quantified by measuring the activity of myeloperoxidase (MPO), a neutrophil-specific enzyme. The ear biopsies were homogenized in 0.5 mL extraction buffer (0.3 M sucrose, 0.22% (w/v) hexadecyl trimethyl ammonium bromide (CTAB), and 2.5 mM citrate prepared from 0.5 M citrate stock solution (pH 5.0)), in a Fast-Prep-24 (MP™) (40 seconds at 6 mps). Debris was removed by centrifugation at 14000×g for 10 min. Aliquots of 10 μL of the resulting supernatant were added to wells of a microtiter plate, along with 90-μL aliquots of dilution buffer (10 mM citrate, 0.22% CTAB), followed by addition of 20 μL TMB liquid substrate system (Sigma Chemical Co.) to each sample well. The microtiter plate contents were held at room temperature until the sample with the highest concentration of MPO reached an absorbance value of 0.4 at 650 nm. The reaction was stopped by addition of 50 μL 1 M H2SO4 to each sample well, and the myeloperoxidase activity in each sample was determined from the absorbance at 405 nm. The background value from the right ear, treated only with acetone, was subtracted from that for the left ear, treated with arachidonic acid in acetone, for each animal. The percent inhibition of neutrophil influx (% Inh. MPO) by compounds of the invention was determined by comparison to animals treated identically, except that the solution administered by oral gavage was devoid of inhibitor compound.
(§3) The number of determinations is indicated in parentheses following each value

[4] = tested on: ex vivo stimulated LTB4 production; test: Murine arachidonic acid-induced inflammation model: ex vivo stimulated LTB4 production (% Inh. LTB4); details: Mus musculus; female Balb/c mice, 30 mg/kg oral gavage; blood taken 3 h after arachidonic acid, ex vivo A23187 stimulation; number of determinations in parentheses
Experimental: as §1, §2
One hundred-microliter aliquots of heparinized blood were added to wells of a microtiter plate, along with equal volumes of RPMI-1640 medium, and calcium ionophore A23187 was added to each sample well (final concentration=[…]). The microtiter plate contents were incubated for 30 min at 37° C. in a humidified incubator. The reaction was terminated by centrifugation (833×g, 10 min at 4° C.). Supernatants were analyzed for LTB4 by a commercially available enzyme-linked immunoassay (Cayman Chemical Co.) in accordance with the manufacturer's instructions. The percent inhibition of ex vivo stimulated LTB4 production (% Inh. LTB4) was determined by comparison to animals treated identically except that the solution administered by oral gavage was devoid of inhibitor compound.
as §3

IC50 [1] [nM]	IC50 [2] [nM]	SMILES	inhibition in vivo at 30 mg/kg [3] [%]	inhibition at 30 mg/kg [4] [%]
42	110	CC(C)(O)C1CCN(Cc2ccc(Oc3nc4ncccc4s3)cc2)CC1 [Example 89, 2-{1-[4-([1,3]Thiazolo[4,5-b]pyridin-2-yloxy)benzyl]piperidin-4-yl}propan-2-ol]	79.1	79.5
7.2	110	NC(=O)C1CCN(Cc2ccc(Oc3nc4ncccc4s3)cc2)CC1 [Example 100, 1-[4-([1,3]Thiazolo[4,5-b]pyridin-2-yloxy)benzyl]piperidine-4-carboxamide]	88.7	85.3
2.4	8	OC[C@@H]1CCCN1Cc1ccc(Oc2nc3ncccc3s2)cc1 [Example 108, {(2S)-1-[4-([1,3]Thiazolo[4,5-b]pyridin-2-yloxy)benzyl]pyrrolidin-2-yl}methanol]	71.4	79.8
6.6	30	CCN(CC)Cc1ccc(Oc2nc3ncccc3s2)cc1 [Example 111, N-Ethyl-N-[4-([1,3]thiazolo[4,5-b]pyridin-2-yloxy)benzyl]ethanamine]	66.9	56.8
110 ± 37	150	CC(=O)N1C[C@@H]2C[C@H]1CN2Cc1ccc(Oc2nc3nccnc3s2)cc1 [Example 120, 2-(4-{[(1S,4S)-5-Acetyl-2,5-diazabicyclo[2.2.1]hept-2-yl]methyl}phenoxy)[1,3]thiazolo[4,5-b]pyrazine]	48.1	57.8
48	270	CC(=O)N1C[C@@H]2C[C@H]1CN2Cc1ccc(Oc2nc3ncc(Cl)cc3s2)cc1 [Example 122, 2-(4-{[(1S,4S)-5-Acetyl-2,5-diazabicyclo[2.2.1]hept-2-yl]methyl}phenoxy)-6-chloro[1,3]thiazolo[4,5-b]pyridine]	66.9	72
5	7.5	CC(=O)N1C[C@@H]2C[C@H]1CN2Cc1ccc(Oc2nc3ncccc3s2)cc1 [Example 127, 1-{(1S,4S)-5-[4-([1,3]Thiazolo[4,5-b]pyridin-2-yloxy)benzyl]-2,5-diazabicyclo[2.2.1]hept-2-yl}ethanone]	87.6	91.5
29	97	c1cnc2nc(Oc3ccc(CN4CCC(N5CCOCC5)CC4)cc3)sc2c1 [Example 257, 2-{4-[(4-Morpholin-4-ylpiperidin-1-yl)methyl]phenoxy}[1,3]thiazolo[4,5-b]pyridine]	70.5	86
2	47	CN(C)CCC1CCCCN1Cc1ccc(Oc2nc3ncccc3s2)cc1 (centres unmarked) [Example 258, N,N-Dimethyl-2-{1-[4-([1,3]thiazolo[4,5-b]pyridin-2-yloxy)benzyl]piperidin-2-yl}ethanamine]	13.8	75
3	77	O=C1C[C@@H](O)CN1C1CCN(Cc2ccc(Oc3nc4ncccc4s3)cc2)CC1 [Example 269, (4R)-4-Hydroxy-1-{1-[4-([1,3]thiazolo[4,5-b]pyridin-2-yloxy)benzyl]piperidin-4-yl}pyrrolidin-2-one]	90.6	84.4
10	120	O=C1C[C@@H](O)CN1C1CCN(CCOc2ccc(Oc3nc4ncccc4s3)cc2)CC1 [Example 270, (4R)-4-Hydroxy-1-(1-{2-[4-([1,3]thiazolo[4,5-b]pyridin-2-yloxy)phenoxy]ethyl}piperidin-4-yl)pyrrolidin-2-one]	60.6	75.9
3	10	CC(=O)N1CC2CN(Cc3ccc(Oc4nc5ncccc5s4)cc3)CC2C1 (centres unmarked) [Example 276, 2-{4-[(5-Acetylhexahydropyrrolo[3,4-c]pyrrol-2(1H)-yl)methyl]phenoxy}[1,3]thiazolo[4,5-b]pyridine]	94.9	57.4
66	155	Cc1ccnc2nc(Oc3ccc(CN4CCC(C(N)=O)CC4)cc3)sc12 [Example 282, 1-{4-[(7-Methyl[1,3]thiazolo[4,5-b]pyridin-2-yl)oxy]benzyl}piperidine-4-carboxamide]	61.1	62.8
94	300	NC(=O)C1CCN(Cc2ccc(Oc3nc4nccnc4s3)cc2)CC1 [Example 285, 1-[4-([1,3]Thiazolo[4,5-b]pyrazin-2-yloxy)benzyl]piperidine-4-carboxamide]	12.3	19.7
6	5	CC(=O)N1C[C@@H]2CC[C@H]1CN2Cc1ccc(Oc2nc3ncccc3s2)cc1 [Example 290, 2-(4-{[(1S,4S)-5-Acetyl-2,5-diazabicyclo[2.2.2]oct-2-yl]methyl}phenoxy)[1,3]thiazolo[4,5-b]pyridine]	86.9	82.9

SMILES	IC50 [1] [nM]	IC50 [2] [nM]	inhibition in vivo at 30 mg/kg [3] [%]	inhibition at 30 mg/kg [4] [%]
CC(=O)N[C@H]1C[C@H]2CC[C@@H](C1)N2Cc1ccc(Oc2nc3ncc(Cl)cc3s2)cc1 [Example 287, meso-endo-N-[8-{4-[(6-Chloro[1,3]thiazolo[4,5-b]pyridin-2-yl)oxy]benzyl}-8-azabicyclo[3.2.1]oct-3-yl]acetamide]	3	110	86.7	89.8
CC(=O)N[C@H]1C[C@H]2CC[C@@H](C1)N2Cc1ccc(Oc2nc3ncc(F)cc3s2)cc1 [Example 288]	15	104	94.6	61.7
